In patent publication EP4806894A1, “TNAP INHIBITORY COMPOUND AND USE THEREOF” (Rednvia Co., Ltd., priority 2023, dated 2025):

Legend:
saos-2 cells = experiment: Anticalcification efficacy in saos-2 cells (osteogenic medium, Alizarin Red staining); assay type: cell-based; details: test compound 1 µM, 7 days osteogenic medium, Alizarin Red absorbance 540 nm; for inhibition at 1 µM: Homo sapiens, 168 h, read-out: calcification inhibition
Description: To confirm the inhibitory effect of calcification in saos-2 cells in which calcification is induced by overexpression of TNAP, saos-2 cells were cultured in a culture medium in an incubator at 37°C, 95% humidity, and 5% CO2. RPMI-1640 (Corning) supplemented with 10% FBS (Gibco) and 1% Pen/Strep (Gibco) was used as the culture medium.
Saos-2 cells were seeded in a 48-well plate at the density of 1.5 x 10^4 cells/well and used in the experiment when they reached 80-90% confluence after stabilization for 2 days.
After saos-2 cells were cultured in a 48-well plate to 80-90% confluence, the culture medium was removed and replaced with an osteogenic medium (OM). DMEM (Gibco) containing 10% FBS, 1% Pen/Strep, 100 nM dexamethasone (Sigma), 10 mM β-glycerophosphate (Sigma), and 0.05 mM L-ascorbic acid (Sigma) was used as the OM. Osteogenic differentiation of saos-2 cells by OM was induced for 7 days, and OM was replaced every 2 to 3 days.
When inducing calcification through OM in saos-2 cells, the cells were treated with concentrations of […] of the TNAP inhibitor test compounds with the OM replacement cycle, except for the control group (OM).
After 7 days of OM induction, the medium was removed from each well and the plate was washed twice with PBS. Cells were fixed with 4% paraformaldehyde for 1 hour, then the fixative was removed and washed twice with deionized water (DW). ARS solution was added to the plate and shaken for 1 hour to stain the cells. When the cells were sufficiently stained red, the dye was removed, the cells were washed carefully with DW, dried, and then photographs were taken of the stained cells. The red-stained area represents calcification induced by OM, and the degree of calcification was determined based on the degree of redness. To quantify this, 10% cetylpyridinium chloride was dispensed into the wells and the dye was dissolved. The dye-dissolved solution was transferred to each well of a 96 well plate and absorbance was measured at 540 nm.
The degree of decrease in the measured absorbance by the test compounds based on the absorbance for OM was evaluated as the degree of inhibition of calcification.

TNAP = molecular target: T1, TNAP (Homo sapiens, UniProt P05186); experiment: TNAP inhibitory activity, colorimetric assay (alkaline phosphatase assay kit ab83369, pNPP substrate); assay type: biochemical; details: TNAP enzyme, 2 hours at room temperature, absorbance 405 nm
T1 sequence (P05186 18-502 limits assumed): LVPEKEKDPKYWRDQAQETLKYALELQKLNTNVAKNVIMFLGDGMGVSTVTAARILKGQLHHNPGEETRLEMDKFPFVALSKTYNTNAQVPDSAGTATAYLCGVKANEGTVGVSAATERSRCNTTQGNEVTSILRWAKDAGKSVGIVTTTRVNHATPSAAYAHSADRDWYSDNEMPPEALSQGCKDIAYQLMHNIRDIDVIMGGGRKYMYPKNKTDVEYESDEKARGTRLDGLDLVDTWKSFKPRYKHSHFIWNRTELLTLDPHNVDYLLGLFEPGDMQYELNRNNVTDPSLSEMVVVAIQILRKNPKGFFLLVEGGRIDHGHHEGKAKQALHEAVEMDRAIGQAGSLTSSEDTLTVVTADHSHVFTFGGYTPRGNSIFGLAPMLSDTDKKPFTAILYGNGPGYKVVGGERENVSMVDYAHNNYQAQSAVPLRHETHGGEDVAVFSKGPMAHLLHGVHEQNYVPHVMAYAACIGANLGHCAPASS
Description: The TNAP inhibitory activity of the compounds according to the present invention was analyzed by colorimetric assay.
The experiments were performed according to the protocol of the alkaline phosphatase assay kit ab83369.
TNAP enzyme at a concentration of 0.2 ng/µl was dispensed into a 96-well plate (Costar) (10 µl/well), to which the 10-fold diluted test substance was added (15 µl/well). The plate was incubated at room temperature, shielded from light, for 10 minutes to allow the enzyme and compound to act. After incubation, 125 µl of 1 mM substrate (pNPP) was added to each well of the plate, and the plate was incubated for 2 hours at room temperature in a darkened state to allow the enzyme, substrate, and test compound to act. Absorbance was measured at 405 nm using a microplate reader (Tecan spark), and IC50 was calculated using GraphPad Prism 9. The amount of p-nitrophenol produced was calculated through the absorbance, and the degree of TNAP activity inhibition was evaluated through the degree of inhibition of p-nitrophenol production, and the concentration of the compound that inhibited 50% was calculated as the IC50 value.

Compound | IC50 (TNAP) [nM] | calcification inhibition (saos-2 cells) | inhibition at 1 µM (saos-2 cells) [%]
2-methoxy-N-(5-oxo-5,6,7,8-tetrahydro-1,6-naphthyridine-3-yl)benzenesulfonamide [Example 26] | 10 to 100 | A (inhibition of 50% or more was expressed as "A") | –
4'-(aminomethyl)-4-fluoro-N-(5-oxo-5,6,7,8-tetrahydro-1,6-naphthyridine-3-yl)-[1,1'-biphenyl]-2-sulfonamide hydrochloride [Example 39] | 10 to 100 | A (inhibition of 50% or more was expressed as "A") | –
COc1ccc(Br)cc1S(=O)(=O)Nc1cnc2c(c1)C(=O)NC2 [Example 2, 5-bromo-2-methoxy-N-(5-oxo-6,7-dihydro-5H-pyrrolo[3,4-b]pyridine-3-yl)benzenesulfonamide] | 10 to 100 | – | ≥ 50
COc1ccc(OC)c(S(=O)(=O)Nc2cnc3c(c2)C(=O)NC3)c1 [Example 3, 2,5-dimethoxy-N-(5-oxo-6,7-dihydro-5H-pyrrolo[3,4-b]pyridine-3-yl)benzenesulfonamide] | 10 to 100 | – | ≥ 50
COc1ccc(F)cc1S(=O)(=O)Nc1cnc2c(c1)C(=O)NC2 [Example 4, 5-fluoro-2-methoxy-N-(5-oxo-6,7-dihydro-5H-pyrrolo[3,4-b]pyridine-3-yl)benzenesulfonamide] | 10 to 100 | – | ≥ 50
O=C1NCc2ncc(NS(=O)(=O)c3cc(Br)cc4c3OCC4)cc21 [Example 5, 5-bromo-N-(5-oxo-6,7-dihydro-5H-pyrrolo[3,4-b]pyridine-3-yl)-2,3-dihydrobenzofuran-7-sulfonamide] | 100 to 1000 | – | 0 to 50
COc1ccc(OC)c(S(=O)(=O)Nc2cnc3c(c2)C(=O)NCC3)c1 [Example 7, 2,5-dimethoxy-N-(5-oxo-5,6,7,8-tetrahydro-1,6-naphthyridine-3-yl)benzenesulfonamide] | ≤ 10 | – | ≥ 50
COc1ccc(F)cc1S(=O)(=O)Nc1cnc2c(c1)C(=O)NCC2 [Example 8, 5-fluoro-2-methoxy-N-(5-oxo-5,6,7,8-tetrahydro-1,6-naphthyridine-3-yl)benzenesulfonamide] | 10 to 100 | – | ≥ 50
COc1ccc(Br)cc1S(=O)(=O)Nc1cnc2c(c1)C(=O)NCC2 [Example 9, 5-bromo-2-methoxy-N-(5-oxo-5,6,7,8-tetrahydro-1,6-naphthyridine-3-yl)benzenesulfonamide] | ≤ 10 | – | ≥ 50
O=C1NCCc2ncc(NS(=O)(=O)c3cc(Br)cc4c3OCC4)cc21 [Example 10, 5-bromo-N-(5-oxo-5,6,7,8-tetrahydro-1,6-naphthyridine-3-yl)-2,3-dihydrobenzofuran-7-sulfonamide] | 100 to 1000 | – | ≥ 50
O=C1NCc2ncc(NS(=O)(=O)c3cc(F)ccc3Br)cc21 [Example 11, 2-bromo-5-fluoro-N-(5-oxo-6,7-dihydro-5H-pyrrolo[3,4-b]pyridine-3-yl)benzenesulfonamide] | ≥ 1000 | – | ≥ 50
O=C1NCc2ncc(NS(=O)(=O)c3c(F)cc(F)cc3Br)cc21 [Example 12, 2-bromo-4,6-difluoro-N-(5-oxo-6,7-dihydro-5H-pyrrolo[3,4-b]pyridine-3-yl)benzenesulfonamide] | ≥ 1000 | – | < 0
COc1ccc(Cl)cc1S(=O)(=O)Nc1cnc2c(c1)C(=O)NCCC2 [Example 13, 5-chloro-2-methoxy-N-(5-oxo-6,7,8,9-tetrahydro-5H-pyrido[3,2-c]azepine-3-yl)benzenesulfonamide] | 100 to 1000 | – | ≥ 50
COc1ccc(Br)cc1S(=O)(=O)Nc1cnc2c(c1)C(=O)NCCC2 [Example 14, 5-bromo-2-methoxy-N-(5-oxo-6,7,8,9-tetrahydro-5H-pyrido[3,2-c]azepine-3-yl)benzenesulfonamide] | 100 to 1000 | – | ≥ 50
O=C1NCCCc2ncc(NS(=O)(=O)c3cc(Br)cc4c3OCC4)cc21 [Example 17, 5-bromo-N-(5-oxo-6,7,8,9-tetrahydro-5H-pyrido[3,2-c]azepine-3-yl)-2,3-dihydrobenzofuran-7-sulfonamide] | ≥ 1000 | – | < 0

Continued, in another order:

IC50 (TNAP) [nM] | Compound | calcification inhibition (saos-2 cells) | inhibition at 1 µM (saos-2 cells) [%]
100 to 1000 | COc1ccc(F)cc1S(=O)(=O)Nc1cnc2c(c1)C(=O)NCCC2 [Example 15, 5-fluoro-2-methoxy-N-(5-oxo-6,7,8,9-tetrahydro-5H-pyrido[3,2-c]azepine-3-yl)benzenesulfonamide] | – | ≥ 50
100 to 1000 | COc1ccc(OC)c(S(=O)(=O)Nc2cnc3c(c2)C(=O)NCCC3)c1 [Example 16, 2,5-dimethoxy-N-(5-oxo-6,7,8,9-tetrahydro-5H-pyrido[3,2-c]azepine-3-yl)benzenesulfonamide] | – | ≥ 50
≥ 1000 | O=C1NCc2ncc(NS(=O)(=O)c3cccc4c3OCC4)cc21 [Example 18, N-(5-oxo-6,7-dihydro-5H-pyrrolo[3,4-b]pyridine-3-yl)-2,3-dihydrobenzofuran-7-sulfonamide] | – | < 0
≥ 1000 | O=C1NCCc2ncc(NS(=O)(=O)c3cccc4c3OCC4)cc21 [Example 19, N-(5-oxo-5,6,7,8-tetrahydro-1,6-naphthyridine-3-yl)-2,3-dihydrobenzofuran-7-sulfonamide] | – | < 0
≥ 1000 | O=C1NCc2ncc(NS(=O)(=O)c3cc(Cl)cc4c3OCC4)cc21 [Example 20, 5-chloro-N-(5-oxo-6,7-dihydro-5H-pyrrolo[3,4-b]pyridine-3-yl)-2,3-dihydrobenzofuran-7-sulfonamide] | – | < 0
≥ 1000 | O=C1NCc2ncc(NS(=O)(=O)c3cc(F)cc4c3OCC4)cc21 [Example 21, 5-fluoro-N-(5-oxo-6,7-dihydro-5H-pyrrolo[3,4-b]pyridine-3-yl)-2,3-dihydrobenzofuran-7-sulfonamide] | – | < 0
100 to 1000 | O=C1NCCc2ncc(NS(=O)(=O)c3cc(Cl)cc4c3OCC4)cc21 [Example 22, 5-chloro-N-(5-oxo-5,6,7,8-tetrahydro-1,6-naphthyridine-3-yl)-2,3-dihydrobenzofuran-7-sulfonamide] | – | ≥ 50
≥ 1000 | O=C1NCCc2ncc(NS(=O)(=O)c3cc(F)cc4c3OCC4)cc21 [Example 23, 5-fluoro-N-(5-oxo-5,6,7,8-tetrahydro-1,6-naphthyridine-3-yl)-2,3-dihydrobenzofuran-7-sulfonamide] | – | < 0
≥ 1000 | O=C1NCCc2ncc(NS(=O)(=O)c3ccc4c(c3)OCCO4)cc21 [Example 24, N-(5-oxo-5,6,7,8-tetrahydro-1,6-naphthyridine-3-yl)-2,3-dihydrobenzo[b][1,4]dioxine-6-sulfonamide] | – | < 0
≥ 1000 | O=C1COc2ccc(S(=O)(=O)Nc3cnc4c(c3)C(=O)NCC4)cc2N1 [Example 25, 3-oxo-N-(5-oxo-5,6,7,8-tetrahydro-1,6-naphthyridine-3-yl)-3,4-dihydro-2H-benzo[b][1,4]oxazine-6-sulfonamide] | – | < 0
100 to 1000 | COc1ccc(Cl)cc1S(=O)(=O)Nc1cncc(C(N)=O)c1 [SBD-425, reference compound] | – | –
